≈ marks a conversion by molar mass, not a printed value. Where “and” joins values, the source holds several entries; their conditions need not be identical. Identical values can stand only once. Each block holds one compound with its values, some of them ahead of it.
Assays:
Test in all cases: ≥ marks a high value that may be exact or a test limit, other limits are often not marked, values filed in µg/mL are converted to µM
Escherichia coli = tested on: Escherichia coli
Staphylococcus aureus = tested on: Staphylococcus aureus
[1] = tested on: Staphylococcus aureus ATCC 25923
Pseudomonas aeruginosa = tested on: Pseudomonas aeruginosa
[2] = tested on: Escherichia coli ATCC 25922
[3] = tested on: Candida albicans ATCC 90028
[4] = tested on: Pseudomonas aeruginosa ATCC 27853
[5] = tested on: Staphylococcus aureus ATCC 29213
[6] = tested on: Staphylococcus aureus ATCC 43300
[7] = tested on: Staphylococcus epidermidis ATCC 12228
[8] = tested on: Enterococcus faecalis ATCC 29212

SMILES: CC[C@H](C)[C@H](NC(=O)CNC(=O)[C@H](CO)NC(=O)[C@H](CC(C)C)NC(=O)[C@@H](NC(=O)CN)[C@@H](C)CC)C(=O)N[C@@H](CC(C)C)C(=O)NCC(=O)N[C@@H](C)C(=O)NCC(=O)N[C@@H](CCCCN)C(=O)N[C@@H](CO)C(=O)N[C@@H](CC(C)C)C(=O)N[C@H](C(=O)N[C@H]1CSSC[C@@H](C(=O)O)NC(=O)[C@H](CC(C)C)NC(=O)CNC(=O)[C@H](CO)NC(=O)[C@H](CC(C)C)NC(=O)CNC1=O)C(C)C [GILSGILGAGKSLVCGLSGLC]
MIC (Escherichia coli): 50 µM (≈ 95.8 µg/mL) | MIC (Staphylococcus aureus): > 100 µM

SMILES: NCCCC[C@H](NC(=O)[C@H](CCCCN)NC(=O)[C@H](CCCN=C(N)N)NC(=O)[C@H](CCCN=C(N)N)NC(=O)[C@H](Cc1c[nH]c2ccccc12)NC(=O)[C@H](Cc1c[nH]c2ccccc12)NC(=O)[C@H](CCCN=C(N)N)NC(=O)[C@H](CCCCN)NC(=O)[C@H](CCCCN)NC(=O)[C@@H](N)CCCN=C(N)N)C(N)=O [RKKRWWRRKK]
MIC (Escherichia coli): 3 µM and 6 µM | MIC [1]: 3 µM and 6 µM

SMILES: CC(C)C[C@H](NC(=O)[C@H](CCCCN)NC(=O)CNC(=O)[C@H](C)NC(=O)[C@H](CC(C)C)NC(=O)[C@H](CCCCN)NC(=O)[C@H](C)NC(=O)[C@H](CC(C)C)NC(=O)[C@H](CCCCN)NC(=O)CNC(=O)[C@H](C)NC(=O)[C@H](Cc1c[nH]c2ccccc12)NC(=O)[C@H](CCCCN)NC(=O)[C@H](C)NC(=O)[C@H](CC(C)C)NC(=O)[C@H](CCCCN)NC(=O)CNC(=O)[C@H](C)NC(=O)[C@H](CC(C)C)NC(=O)[C@@H](N)CCCCN)C(=O)N[C@@H](C)C(N)=O [KLAGKLAKWAGKLAKLAGKLA]
MIC (Escherichia coli): 3.74 µM (≈ 8 µg/mL) | MIC (Pseudomonas aeruginosa): 7.49 µM (≈ 16 µg/mL) | MIC (Staphylococcus aureus): 3.74 µM (≈ 8 µg/mL)

SMILES: CC[C@H](C)[C@H](NC(=O)CN)C(=O)N[C@@H](CCSC)C(=O)N[C@@H](CC(=O)O)C(=O)N[C@H](C(=O)N[C@H](C(=O)N[C@@H](CCCCN)C(=O)NCC(=O)N[C@@H](C)C(=O)N[C@@H](C)C(=O)N[C@@H](CCCCN)C(=O)N[C@@H](CC(=O)O)C(=O)N[C@@H](CC(C)C)C(=O)N[C@@H](C)C(=O)NCC(=O)N[C@@H](CCC(N)=O)C(=O)N[C@@H](CC(C)C)C(=O)N[C@@H](CC(C)C)C(=O)N[C@@H](CC(=O)O)C(=O)N[C@@H](CCCCN)C(=O)N[C@@H](CC(C)C)C(=O)N[C@@H](CCCCN)C(=O)N[C@H]1CSSC[C@@H](C(=O)O)NC(=O)[C@H](CCCCN)NC(=O)[C@H]([C@@H](C)O)NC(=O)[C@H]([C@@H](C)CC)NC(=O)[C@H](CCCCN)NC1=O)[C@@H](C)CC)[C@@H](C)O [GIMDTIKGAAKDLAGQLLDKLKCKITKC]
MIC [1]: > 150 µM | MIC [2]: 75 µM (≈ 223 µg/mL) | MIC [3]: ≥ 150 µM

SMILES: CC[C@H](C)[C@H](N)C(=O)N[C@H](C(=O)N[C@@H](CCCN=C(N)N)C(=O)N[C@H](C(=O)N[C@@H](C)C(=O)N[C@H](C(=O)N[C@@H](C)C(=O)N[C@@H](CC(C)C)C(=O)N[C@@H](CCCN=C(N)N)C(=O)N[C@@H](CCCN=C(N)N)C(=O)N[C@H](C(=O)N[C@@H](CCCN=C(N)N)C(N)=O)[C@@H](C)CC)C(C)C)C(C)C)C(C)C [IVRVAVALRRIR]
MIC (Pseudomonas aeruginosa): 51.3 µM (≈ 73 µg/mL)

SMILES: CC[C@H](C)[C@H](NC(=O)[C@@H]1CCCN1C(=O)[C@H](CC(C)C)NC(=O)[C@@H](N)Cc1ccccc1)C(=O)N[C@@H](CC(C)C)C(=O)NCC(=O)N[C@@H](CCCCN)C(=O)N[C@@H](CC(C)C)C(=O)N[C@@H](CC(C)C)C(=O)N[C@@H](CO)C(=O)NCC(=O)N[C@@H](Cc1ccccc1)C(=O)N[C@@H](CC(C)C)C(N)=O [FLPILGKLLSGFL]
MIC [1]: 10 µM (≈ 14.2 µg/mL) | MIC [2]: > 160 µM | MIC [3]: ≥ 80 µM

SMILES: CC[C@H](C)[C@H](NC(=O)[C@H](CCCCN)NC(=O)[C@H](C)NC(=O)[C@@H](N)CCC(N)=O)C(=O)N[C@@H](CCCN=C(N)N)C(=O)N[C@H](C(=O)N[C@@H](CCCN=C(N)N)C(=O)N[C@@H](CC(C)C)C(=O)N[C@@H](CO)C(=O)N[C@@H](C)C(=O)O)C(C)C [QAKIRVRLSA]
MIC [4]: 28 µM (≈ 32 µg/mL) | MIC [2]: 112 µM (≈ 128 µg/mL) | MIC [5]: > 56.1 µM

SMILES: NCC(=O)N[C@@H](CCCN=C(N)N)C(=O)N[C@@H](CCCN=C(N)N)C(=O)N1CCC[C@H]1C(=O)N[C@@H](CCCN=C(N)N)C(=O)N1CCC[C@H]1C(=O)N[C@@H](CCCN=C(N)N)C(=O)N1CCC[C@H]1C(=O)N[C@@H](CCCN=C(N)N)C(=O)N1CCC[C@H]1C(=O)N[C@@H](Cc1ccccc1)C(=O)N[C@@H](Cc1ccccc1)C(=O)N[C@@H](Cc1ccccc1)C(N)=O [GRRPRPRPRPFFF]
MIC [4]: > 160 µM | MIC [2]: 160 µM (≈ 270 µg/mL) | MIC [5]: 40 µM (≈ 67.4 µg/mL)

SMILES: CC(C)C[C@H](NC(=O)[C@H](CCCCN)NC(=O)[C@H](CC(C)C)NC(=O)[C@H](CC(C)C)NC(=O)[C@H](CCCCN)NC(=O)[C@H](CCCCN)NC(=O)[C@H](C)NC(=O)[C@H](CC(C)C)NC(=O)[C@H](CCCCN)NC(=O)[C@H](CC(C)C)NC(=O)[C@H](CC(C)C)NC(=O)[C@H](CCCCN)NC(=O)[C@H](CCCCN)NC(=O)[C@@H](N)CC(C)C)C(=O)N[C@@H](C)C(=O)NCC(=O)O [LKKLLKLAKKLLKLAG]
MIC [2]: 5 µM (≈ 8.89 µg/mL) | MIC [5]: 5 µM (≈ 8.89 µg/mL)

SMILES: CC[C@H](C)[C@H](NC(=O)CN)C(=O)N[C@@H](CCCCN)C(=O)N[C@@H](CCCCN)C(=O)N[C@@H](Cc1c[nH]c2ccccc12)C(=O)N1CCC[C@H]1C(=O)N[C@@H](Cc1cnc[nH]1)C(=O)N[C@@H](CCCCN)C(=O)N1CCC[C@H]1C(=O)N[C@@H](CCCCN)C(=O)N[C@@H](CCCCN)C(=O)N[C@@H](Cc1ccccc1)C(=O)NCC(=O)N[C@@H](CCCCN)C(=O)N[C@@H](CCCCN)C(=O)N[C@@H](Cc1ccccc1)C(=O)N[C@H](C(=O)N[C@@H](CCCCN)C(=O)N[C@@H](CCCCN)C(=O)N[C@H](C(=O)N[C@@H](CCCCN)C(=O)N[C@@H](CCCCN)C(=O)N[C@@H](CO)C(N)=O)[C@@H](C)CC)C(C)C [GIKKWPHKPKKFGKKFVKKIKKS]
MIC [2]: 10 µM (≈ 27.7 µg/mL) | MIC [7]: 5 µM (≈ 13.8 µg/mL)

Second part, the compound after the results:

MIC [4]: 62.5 µM (≈ 178 µg/mL) | MIC [2]: 62.5 µM (≈ 178 µg/mL) | MIC [5]: 62.5 µM (≈ 178 µg/mL) | MIC [6]: 62.5 µM (≈ 178 µg/mL)
SMILES: CC[C@H](C)[C@H](NC(=O)CN)C(=O)NCC(=O)N[C@@H](C)C(=O)N[C@H](C(=O)N[C@@H](CC(C)C)C(=O)N[C@@H](CCCCN)C(=O)N[C@H](C(=O)N[C@@H](CC(C)C)C(=O)N[C@H](C(=O)N[C@H](C(=O)NCC(=O)N[C@@H](CC(C)C)C(=O)N[C@@H](CS)C(=O)N[C@@H](C)C(=O)N[C@@H](CC(C)C)C(=O)N[C@H](C(=O)N[C@@H](CO)C(=O)N[C@@H](Cc1c[nH]c2ccccc12)C(=O)N[C@H](C(=O)N[C@@H](CCCCN)C(=O)N[C@@H](CCCN=C(N)N)C(=O)N[C@@H](CCCCN)C(=O)N[C@@H](CCCN=C(N)N)C(=O)N[C@@H](CCC(N)=O)C(=O)N[C@@H](CCC(N)=O)C(=O)O)[C@@H](C)CC)[C@@H](C)CC)[C@@H](C)O)[C@@H](C)O)C(C)C)C(C)C [GIGAVLKVLTTGLCALISWIKRKRQQ]

MIC [2]: 20 µM (≈ 50.1 µg/mL) | MIC [7]: 20 µM (≈ 50.1 µg/mL)
SMILES: CC[C@H](C)[C@H](NC(=O)CNC(C)=O)C(=O)NCC(=O)N[C@@H](CCCCN)C(=O)N[C@@H](Cc1ccccc1)C(=O)N[C@@H](CC(C)C)C(=O)N[C@@H](Cc1cnc[nH]1)C(=O)N[C@@H](CO)C(=O)N[C@@H](C)C(=O)N[C@@H](CCCCN)C(=O)N[C@@H](CCCCN)C(=O)N[C@@H](Cc1ccccc1)C(=O)NCC(=O)N[C@@H](CCCCN)C(=O)N[C@@H](C)C(=O)N[C@@H](Cc1ccccc1)C(=O)N[C@H](C(=O)NCC(=O)N[C@@H](CCC(N)=O)C(=O)N[C@H](C(=O)N[C@@H](CCSC)C(=O)N[C@@H](CC(N)=O)C(=O)N[C@@H](CO)C(N)=O)[C@@H](C)CC)C(C)C [GIGKFLHSAKKFGKAFVGQIMNS]

MIC [2]: > 250 µM | MIC [5]: > 250 µM
SMILES: CC(C)C[C@H](NC(=O)[C@H](C)NC(=O)[C@H](Cc1ccc(O)cc1)NC(=O)[C@H](CC(C)C)NC(=O)[C@H](CCCN=C(N)N)NC(=O)[C@H](C)NC(=O)[C@H](CC(C)C)NC(=O)[C@H](CO)NC(=O)[C@H](C)NC(=O)[C@H](CC(C)C)NC(=O)[C@H](CC(=O)O)NC(=O)[C@H](CCCN=C(N)N)NC(=O)[C@H](CCCN=C(N)N)NC(=O)[C@H](CCCN=C(N)N)NC(=O)[C@H](CCC(=O)O)NC(=O)[C@H](CCC(=O)O)NC(=O)[C@H](CO)NC(=O)[C@@H](NC(=O)[C@H](CCC(N)=O)NC(=O)[C@H](Cc1ccc(O)cc1)NC(=O)[C@@H](N)Cc1ccc(O)cc1)C(C)C)C(=O)N[C@@H](C)C(=O)N[C@@H](CCCN=C(N)N)C(N)=O [YYQVSEERRRDLASLARLYALAR]

MIC [1]: 2.7 µM (≈ 8.09 µg/mL) | MIC [4]: 5.4 µM (≈ 16.2 µg/mL) | MIC [2]: 1.3 µM (≈ 3.9 µg/mL) | MIC [8]: 22 µM (≈ 65.9 µg/mL)
SMILES: CC[C@H](C)[C@H](NC(=O)CNC(=O)[C@H](CCCCN)NC(=O)[C@H](CC(C)C)NC(=O)[C@H](CCSC)NC(=O)[C@H](CC(N)=O)NC(=O)[C@H](CCCCN)NC(=O)[C@H](Cc1c[nH]c2ccccc12)NC(=O)[C@H](CC(C)C)NC(=O)[C@H](C)N)C(=O)NCC(=O)N[C@@H](CCCCN)C(=O)N[C@@H](CC(C)C)C(=O)N[C@@H](C)C(=O)NCC(=O)N[C@@H](CCC(N)=O)C(=O)N[C@@H](C)C(=O)N[C@@H](C)C(=O)N[C@@H](CC(C)C)C(=O)NCC(=O)N[C@@H](C)C(=O)N[C@H](C(=O)N[C@@H](CCCCN)C(=O)N[C@H](C(=O)N[C@@H](CC(C)C)C(=O)N[C@H](C(=O)NCC(=O)N[C@@H](C)C(=O)N[C@@H](CCC(=O)O)C(=O)N[C@@H](CO)C(=O)O)C(C)C)[C@@H](C)O)C(C)C [ALWKNMLKGIGKLAGQAALGAVKTLVGAES]
